Test results published in PMC3207826, “Phase I Evaluation of STA-1474, a Prodrug of the Novel HSP90 Inhibitor Ganetespib, in Dogs with Spontaneous Cancer” (PLoS ONE, 2011).
Entries after “also recorded” stand apart in the source; their conditions may differ. Blank lines part the entries; values can stand above or below the compound they belong to.

Tests used:
[1] = Toxicity assessment (VCOG-CTCAE grades) in Phase I trial; type: in vivo, dogs
Description: This study was a Phase I dose escalating, open label assessment of the safety and pharmacokinetics of STA-1474 in client owned dogs with spontaneous malignancies. Dogs were administered STA-1474 on one of three dosing regimens and were evaluated weekly or twice per week dependent on the regimen used. Assessment of clinical toxicities and tumor response was performed at each visit. Dogs were evaluated for hematologic and biochemical toxicities every 7 days with routine bloodwork. The initial dose of STA-1474 was set at 7 mg/kg based on previous data from normal laboratory dogs (data not shown) and dose escalation was set at 2.5 mg/kg increments in cohorts of 3 until dose limiting toxicity (DLT) was identified. The DLT was considered to be any grade 3 or 4 hematologic or non-hematologic toxicity based on the established VCOG-CTAE criteria. […] Disease progression or signs and symptoms definitely related to disease were not considered adverse events (AEs).
Each patient underwent a baseline complete history, physical examination, and predose laboratory assessment that included a complete blood count (CBC), serum biochemistry profile, and urinalysis. Patients were assessed for adverse events on days 8, 15, 22, and 29, at which time a complete blood count with differential and clinical chemistry were performed. Urinalysis was performed at baseline and repeated only if indicated. Stipulations regarding minimal hematological requirements to continue dosing were included in the protocol: hematocrit >25%, neutrophils >[…], platelets >[…]. In addition, liver transaminases were required to be <4X upper limit of normal with a normal total bilirubin and serum creatinine to continue STA-1474 therapy.

[2] = test system: spontaneous tumors; test: Tumor response assessment (RECIST); type: in vivo, dogs
Description: Tumor assessments were completed prior to study entry, and days 8, 15, 22, and 29. For dogs that continued beyond the planned 4 doses of STA-1474, response assessments were performed every 3–6 weeks thereafter, or at the time of suspected tumor progression. Responses were assessed by the investigator according to pre-defined protocol criteria. The response in dogs with assessable disease was performed by clinical examination, radiography, ultrasonography, or CT scans. Many lesions were not amenable for quantitative radiographic imaging, but were followed either by serial clinical examination (superficial lesions; palpable lymph nodes) or by ultrasonography (abdominal lymph nodes). Thoracic lesions were assessed by thoracic radiography and nasal lesions by CT scan.
The response in dogs with measurable disease was judged by the investigator on the basis of RECIST criteria. A complete response (CR) was defined as disappearance of all disease on two measurements separated by a minimum period of 3 weeks. A partial response (PR) was defined as greater than 30% reduction in the sum of the longest diameter of the target lesions documented by two assessments separated by at least 3 weeks. An increase of >20% in the size of all measurable tumor areas as measured by the sum of longest diameters of the target lesions taken as reference the smallest sum since initiation of therapy, or the appearance of any new lesion(s) would qualify as progressive disease (PD). A mixed response (MR) was defined as PR in some target lesions with PD in other target lesions. Stable disease (SD) was defined by the absence of criteria for either a response or progression. Dogs who had no evidence of tumor progression and who had not experienced any unacceptable toxicity were eligible for extended treatment cycles. Dose escalation in an individual dog was permitted if the dog was tolerating therapy.

[3] = test system: canine MCT and OSA cell lines; conditions: cited from earlier work; for activity compared with 17-AAG: OSA and MCT cell lines
[4] = test system: OSA xenografts; conditions: cited from earlier work
[5] = test system: HSP70; test: Evaluation of HSP70 expression in tumor biopsies and PBMCs (ELISA, Western blot); type: in vivo, dogs
[6] = test system: HSP90; test: Evaluation of tumor biopsies for HSP90 expression (Western blot); type: in vivo, dogs; conditions: tumor samples, 24 hrs following treatment, 5 mg/kg over 1 hour
Description: Frozen tumor samples were processed as described above, then resuspended in 100–150 uL of lysis buffer consisting of 20 mM Tris-HCl pH 8.0, 137 mM NaCl, 10% glycerol, 1% IGEPAL CA-630, 10 mM ethylenediaminetetraacetic acid (EDTA), 1 mg/mL aprotinin, 1 mg/mL leupeptin, 1 mg/mL pepstatin A, 1 mM phenylmethysulphonyl fluoride, 1 mM sodium orthovanadate, 10 mM sodium fluoride (all from Sigma, St. Louis, MO). Sample were rocked at 4°C for 1 hour, and then centrifuged for 15 minutes at 13,000 RCF. A Bradford protein assay was performed on the lysates using BioRad Reagent (Hercules, CA). 60–100 µg of protein were separated by SDS-page, and transferred to PVDF membranes. The membranes were incubated overnight with anti-HSP90 antibodies (Cell Signaling Technology, Danvers, MA), washed, then incubated with horseradish peroxidase linked secondary antibody. Membranes were washed again, then exposed to Super Signal West Dura Extended Duration Substrate (Pierce, Rockford, IL) Membranes were stripped, washed, and reprobed for β-Actin (Santa Cruz Biotechnology, Santa Cruz, CA) using the SNAP i.d. apparatus (Millipore, Billerica, MA) according to manufacture's instructions.

[7] = test system: human cancer cell lines; parameters: method as in earlier work; conditions: in vitro; 15 and unpublished data, Synta Pharmaceuticals Corp.; cited from earlier work
[8] = test system: MCT xenograft; conditions: murine MCT xenograft model; cited from earlier work
[9] = Ganetespib pharmacokinetics in plasma after STA-1474 infusion (LC-MS/MS); type: in vivo, dogs; conditions: for half-life / AUC(0-t) / Cmax / Tmax: iv, STA-9090 in plasma, mean, day 1
Description: Plasma samples were collected on day 1 and day 22 of therapy at the specified intervals: before and after dosing at 30, 60, 90, 120, 180, 300 (5 hr), 540 (9 hr), and 1440 (24 hr) minutes relative to the start of dosing. On day 8, day 15, and day 29, plasma was collected before dosing only. Approximately 1 ml of blood was drawn from an indwelling catheter, placed in a sodium heparin vacuum glass tube, and placed on ice until centrifugation. Blood samples were centrifuged at 3300 rpm for 10 minutes, within 30 minutes of collection. Plasma was transferred by pipette into two cryovials and stored at −80°C until analysis.
Plasma concentrations of ganetespib were determined using a qualified liquid chromatography tandem mass spectrometry (LC-MS/MS) method. Samples were analyzed on an HPLC system consisting of an Agilent HP1100 separation module (Santa Clara, CA) coupled to an AB SCIEX API400 MS/MS detector (Foster City, CA). Stable isotope-labeled ganetespib was used as an internal standard. Sample extraction was performed by a liquid-liquid extraction method with 25 µL plasma samples and 800 µL methyl tertiary butyl ether. The organic phase of samples was evaporated to dryness under nitrogen and reconstituted with water/acetonitrile solution for injection. Chromatographic separation was achieved on a reverse-phase analytical column (4 µm particle, 50×2.0 mm i.d.) with gradient elution of water/0.1% formic acid and acetonitrile/0.1% formic acid at a flow rate of 500 µL/min. The total run time was 4 min. Quantitation was achieved by MS/MS detection in positive ion mode by multiple reaction monitoring. The lower limit of quantitation (LLOQ) was 1.00 ng/mL, with a concentration range from 1.00 to 1000 ng/mL.
The pharmacokinetic parameters for ganetespib were determined from the plasma concentration data using the Noncompartmental Analysis module in WinNonlin, version 5.2 (Pharsight Corporation, St.Louis, MO). The predose samples that measured below the LLOQ (BQL) were treated as zero for the calculations. Maximum concentration (Cmax) and time of maximum concentration (Tmax) were directly determined from the observed concentration-time profiles. The area under the plasma concentration-time curve (AUC) was estimated by the linear trapezoidal rule. The apparent half-life (t1/2) was calculated as t1/2 = 0.693/λ where λ was the elimination rate constant estimated from the regression of the terminal slope of the concentration versus time curve.

[10] = 1 hr/2x week, 5.0 mg/kg, 7 dogs
[11] = dog, plasma, 5 mg/kg, STA-1474 5 mg/kg, 1 h infusion, twice weekly
[12] = dog, plasma, 9.5 mg/kg, STA-1474 9.5 mg/kg, 1 h infusion, once weekly
[13] = dog, plasma, 9.5 mg/kg, STA-1474 9.5 mg/kg, 8 h infusion, once weekly

Structure (SMILES): CC(C)c1cc(-c2nnc(O)n2-c2ccc3c(ccn3C)c2)c(O)cc1OP(=O)(O)O [STA-1474]
Anorexia grade 1 (count) [1, 10]: 3 | Anorexia grade 2 (count) [1, 10]: 5 | Diarrhea grade 1 (count) [1, 10]: 5 | Diarrhea grade 2 (count) [1, 10]: 1 | Diarrhea grade 3 (count) [1, 10]: 1 | Lethargy grade 1 (count) [1, 10]: 4 | Lethargy grade 2 (count) [1, 10]: 2 | Anorexia grade 2 (count) ([1]; 1 hr/week, 7.0 mg/kg, 4 dogs): 2 | Diarrhea grade 1 (count) ([1]; 1 hr/week, 7.0 mg/kg, 4 dogs): 2 | Diarrhea grade 2 (count) ([1]; 1 hr/week, 7.0 mg/kg, 4 dogs): 3 | Lethargy grade 1 (count) ([1]; 1 hr/week, 7.0 mg/kg, 4 dogs): 2 | Vomiting grade 1 (count) ([1]; 1 hr/week, 7.0 mg/kg, 4 dogs): 3 | Diarrhea grade 1 (count) ([1]; 1 hr/week, 9.5 mg/kg, 5 dogs): 1 | Diarrhea grade 3 (count) ([1]; 1 hr/week, 9.5 mg/kg, 5 dogs): 1 | Lethargy grade 2 (count) ([1]; 1 hr/week, 9.5 mg/kg, 5 dogs): 1 | Lethargy grade 3 (count) ([1]; 1 hr/week, 9.5 mg/kg, 5 dogs): 1 | Vomiting grade 2 (count) ([1]; 1 hr/week, 9.5 mg/kg, 5 dogs): 2 | Anorexia grade 2 (count) ([1]; 1 hr/week, 10.25 mg/kg, 3 dogs): 3 | Diarrhea grade 2 (count) ([1]; 1 hr/week, 10.25 mg/kg, 3 dogs): 3 | Lethargy grade 2 (count) ([1]; 1 hr/week, 10.25 mg/kg, 3 dogs): 3 | Vomiting grade 2 (count) ([1]; 1 hr/week, 10.25 mg/kg, 3 dogs): 1 | Anorexia grade 1 (count) ([1]; 8 hr/week, 9.5 mg/kg, 6 dogs): 5 | Anorexia grade 2 (count) ([1]; 8 hr/week, 9.5 mg/kg, 6 dogs): 4 | Diarrhea grade 1 (count) ([1]; 8 hr/week, 9.5 mg/kg, 6 dogs): 4 | Diarrhea grade 2 (count) ([1]; 8 hr/week, 9.5 mg/kg, 6 dogs): 4 | Lethargy grade 1 (count) ([1]; 8 hr/week, 9.5 mg/kg, 6 dogs): 2 | Vomiting grade 2 (count) ([1]; 8 hr/week, 9.5 mg/kg, 6 dogs): 3 | maximum tolerated weekly dose ([1]; administered weekly over 1 or 8 hours, intravenous): 9.5 mg/kg | hematologic or biochemical toxicities ([1]; any doses or regimens): No drug-related hematologic or biochemical toxicities; also recorded: no evidence of hematologic toxicity | dogs with partial responses ([2]; 5 mg/kg over one hour twice per week, 7 dogs, both MCTs): 2 | objective responses ([2]; 1 hr once per week dosing regimen, n = 12, exception one dog with oral malignant melanoma after extravasation): no objective responses | biologic activity rate ([2]; 8 hour infusion group, 9.5 mg/kg once weekly, 2PR, 1 MR, 2 SD of 6): 83% | response rate (measurable objective responses) ([2]; all dogs, 6/25): 24% | overall biological activity (objective responses plus stable disease >10 weeks) ([2]; all dogs, 9/25): 36% | duration of mixed response ([2]; metastatic MCT, 8 hour infusion 9.5 mg/kg): 16 weeks | duration of partial response ([2]; metastatic OSA, 8 hour infusion 9.5 mg/kg): 20 weeks | duration of partial response ([2]; metastatic thyroid carcinoma, 8 hour infusion 9.5 mg/kg): 36 weeks | duration of stable disease ([2]; metastatic thyroid carcinoma, switched from 1 hr to 8 hr infusion): 40 weeks | duration of continued partial response ([2]; oral malignant melanoma with extravasation event, on 8 hour infusion protocol): 12 weeks | duration of stable disease ([2]; two dogs, both metastatic OSA, 8 hour infusion 9.5 mg/kg): 12 weeks | activity compared with 17-AAG [3]: superior activity | tumor effect [4]: induced tumor regression | HSP70 expression (Western blot) ([5]; PBMCs, 24 hours after 9.5 mg/kg over 8 hours): small increases in HSP70 expression | time to upregulation of HSP70 protein expression ([5]; tumor specimens and PBMCs, following drug administration): ≤ 7 h | HSP90 expression levels (Western blot) [6]: did not appear to change substantially

sustained blood levels ([9]; dog with oral melanoma, extravasation (mostly subcutaneous) of STA-1474, first dosing cohort): 200 to 600 ng/mL | duration of sustained blood levels ([9]; dog with oral melanoma, extravasation of STA-1474, levels between 200–600 ng/ml): 8 to 10 h | half-life ([9]; dog, STA-1474 5 mg/kg, 1 h infusion, twice weekly): 6.1 h | half-life ([9]; dog, STA-1474 9.5 mg/kg, 1 h infusion, once weekly): 5.6 h | AUC ([9]; dog, plasma, intravenous, range over the three dosing regimens of STA-1474): 5010 to 5700 ng·h/mL | AUC(0-t) [9, 11]: 5010 ng·h/mL | Cmax [9, 11]: 3420 ng/mL | Tmax [9, 11]: 1.1 h | AUC(0-t) [9, 12]: 5700 ng·h/mL | Cmax [9, 12]: 3980 ng/mL | Tmax [9, 12]: 0.7 h | AUC(0-t) [9, 13]: 5600 ng·h/mL | Cmax [9, 13]: 802 ng/mL | Tmax [9, 13]: 5.7 h
Structure (SMILES): CC(C)c1cc(-c2n[nH]c(=O)n2-c2ccc3c(ccn3C)c2)c(O)cc1O [ganetespib]
concentrations killing cancer cell lines [7]: low nanomolar concentrations | tumor growth [8]: inhibited tumor growth | activity compared with 17-AAG [3]: superior activity | concentrations for biologic effects, lower than those for 17-AAG ([3]; canine MCT and OSA cell lines): at least 1 log
